ChEMBL document CHEMBL5543140 (J Med Chem, 2024)
Calls of active or inactive are those of the source. The rule behind the calls is not given here.

Experiments:
[1] = target: T1, 5-hydroxytryptamine receptor 2B (Homo sapiens, UniProt P41595); test: Displacement of [3H]LSD from human 5-HT2B receptor expressed in HEK293 cell membrane incubated for 90 mins by microbeta liquid scintillation counting method; format: cell membranes
[2] = test system: Mus musculus; test: Psychedelic effect in C57BL/6J mouse assessed as number of head-twitch responses by visual observation at 3 mg/kg, po measured for 3 mins at 5 to 25 min; format: functional; settings: 0.05 h
[3] = organism: Homo sapiens; test: Selectivity ratio, ratio of Ki for human 5-HT2B receptor to human 5-HT2A receptor
[4] = target: 5-hydroxytryptamine receptor 2A (Homo sapiens, UniProt P28223); test: Binding affinity to human [125I]LSD-labeled 5-HT2A receptor expressed in HEK293 cell membrane incubated for 60 mins; format: cell membranes
[5] = target: T2, 5-hydroxytryptamine receptor 1A (Homo sapiens) (UniProt P08908); test: Displacement of [3H]-8-OH-DPAT from 5-HT1A receptor (unknown origin) assessed as inhibition binding at 10 uM relative to control
T2 sequence (whole entry): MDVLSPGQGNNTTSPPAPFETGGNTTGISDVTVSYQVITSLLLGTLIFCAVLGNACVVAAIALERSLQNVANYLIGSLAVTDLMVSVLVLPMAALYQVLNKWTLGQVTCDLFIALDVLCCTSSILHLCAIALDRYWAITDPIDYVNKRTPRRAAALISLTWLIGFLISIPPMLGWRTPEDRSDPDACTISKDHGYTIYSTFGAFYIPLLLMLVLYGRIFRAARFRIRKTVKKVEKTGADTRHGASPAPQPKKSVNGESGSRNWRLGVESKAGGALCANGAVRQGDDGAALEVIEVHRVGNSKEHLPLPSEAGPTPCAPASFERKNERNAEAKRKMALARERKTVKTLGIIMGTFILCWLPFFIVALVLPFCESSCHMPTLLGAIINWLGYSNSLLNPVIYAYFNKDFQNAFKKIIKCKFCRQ

[6] = target: T3, 5-hydroxytryptamine receptor 1B (Homo sapiens, UniProt P28222); test: Displacement of [3H]GR125743 from 5-HT1B receptor (unknown origin) assessed as inhibition binding at 10 uM relative to control
[7] = target: T3, 5-hydroxytryptamine receptor 1B; test: Displacement of [3H]5-CT from 5-HT1B receptor (unknown origin) assessed as inhibition binding
[8] = target: 5-hydroxytryptamine receptor 7 (Homo sapiens, UniProt P34969); test: Displacement of [3H]LSD from 5-HT7 receptor (unknown origin) assessed as inhibition binding
[9] = target: T1, 5-hydroxytryptamine receptor 2B; test: Agonist activity at human 5-HT2B receptor expressed in CHO cells assessed as maximal IP2 production measured after 30 mins incubation by HTRF assay relative to control; format: functional, cell-based; settings: read-out: EC50
[10] = test system: Mus musculus; test: Psychedelic effect in sc dosed C57BL/6J mouse assessed as induction of 5-HT2A receptor dependent head-twitch responses by visual observation measured within 10 mins; format: functional, organism-based; settings: dose 0.1-3 mg/kg
[11] = test system: Mus musculus; test: Psychedelic effect in C57BL/6J mouse assessed as induction of 5-HT2A receptor dependent maximal head-twitch responses by visual observation at 1 mg/kg, sc at 100 mins; format: functional, organism-based
[12] = test system: Mus musculus; test: Psychedelic effect in C57BL/6J mouse assessed as induction of 5-HT2A receptor dependent maximal head-twitch responses by visual observation at 1 to 3 mg/kg, sc at 40 mins post- administration measured upto 360 mins; format: functional, organism-based; settings: dose 1-3 mg/kg
[13] = test system: Mus musculus; test: Psychedelic effect in C57BL/6J mouse assessed as development of tolerance/ tachyphylaxis at 3 mg/kg, sc measured on day 4 by head-twitch responses test; format: functional, organism-based; settings: time 4.0 day
[14] = Ex vivo binding in C57BL/6J mouse brain frontal cortex assessed as specific binding [3H]Cimbi-36 at 1 mg/kg, sc measured after 100 mins by liquid scintillation counting analysis (reference value: 1092 +/- 53); format: functional; settings: 1.667 h
[15] = test system: Mus musculus; test: Induction of neuroplasticity in C57BL/6J mouse assessed as increase in EGR2 mRNA expression in brain frontal cortex at 3 mg/kg, sc single dose by RT-PCR analysis; format: functional, organism-based
[16] = test system: Hippocampus; test: Induction of neuroplasticity in C57BL/6J mouse assessed as increase in Homer 1 mRNA expression in brain hippocampus at 3 mg/kg, sc single dose by RT-PCR analysis; format: functional, organism-based
[17] = test system: Hippocampus; test: Induction of neuroplasticity in C57BL/6J mouse assessed as increase in c-Fos mRNA expression in brain hippocampus at 3 mg/kg, sc single dose by RT-PCR analysis; format: functional, organism-based
[18] = test system: Hippocampus; test: Induction of neuroplasticity in C57BL/6J mouse assessed as increase in PSD-95 mRNA expression in brain hippocampus at 0.3 mg/kg, sc single dose by RT-PCR analysis; format: functional, organism-based
[19] = test system: Hippocampus; test: Induction of neuroplasticity in C57BL/6J mouse assessed as increase in CREB1 mRNA expression in brain hippocampus at 0.3 mg/kg, sc single dose by RT-PCR analysis; format: functional, organism-based
[20] = test system: Hippocampus; test: Induction of neuroplasticity in C57BL/6J mouse assessed as increase in mTOR mRNA expression in brain hippocampus at 0.3 mg/kg, sc single dose by RT-PCR analysis; format: functional, organism-based
[21] = Metabolic stability in monkey liver S9 fractions assessed as half life; format: ADME, subcellular, Macaca fascicularis; settings: cynomolgus monkey, liver S9 fraction
[22] = Metabolic stability in rat hepatocytes assessed as half life at 10 uM; format: ADME, cell-based, Hepatocyte
[23] = Drug metabolism in rat hepatocytes assessed as formation of sulfoxide metabolites at 10 uM by HRAMS analysis; format: ADME, cell-based, Hepatocyte
[24] = Volume of distribution in Wistar rat plasma at 1 mg/kg, iv measured upto 48 hrs; format: ADME, organism-based
[25] = AUCinf in Wistar rat plasma at 5 mg/kg, po measured upto 48 hrs; format: ADME, organism-based
[26] = Brain to plasma ratio in Wistar rat at 5 mg/kg, po measured upto 48 hrs; format: ADME, organism-based; settings: brain and plasma, read-out: BPR
[27] = AUClast in male Sprague-Dawley rat plasma at 1 mg/kg, iv measured upto 8 hrs by LC-MS/MS analysis; format: ADME, organism-based
[28] = Volume of distribution at steady state in male Sprague-Dawley rat plasma at 1 mg/kg, iv measured upto 8 hrs by LC-MS/MS analysis; format: ADME, organism-based; settings: read-out: Vdss
[29] = MRTinf in male Sprague-Dawley rat plasma at 1 mg/kg, iv measured upto 8 hrs by LC-MS/MS analysis; format: ADME, organism-based
[30] = Tmax in male Sprague-Dawley rat brain at 1 mg/kg, iv measured upto 8 hrs by LC-MS/MS analysis; format: ADME, organism-based
[31] = Half life in male Sprague-Dawley rat brain at 1 mg/kg, iv measured upto 8 hrs by LC-MS/MS analysis; format: ADME, organism-based
[32] = AUClast in male Sprague-Dawley rat CSF at 1 mg/kg, iv measured upto 8 hrs by LC-MS/MS analysis; format: ADME, organism-based, Cerebrospinal fluid
[33] = test system: Brain; test: Drug binding in male C57BL/6J mouse brain homogenate at 1 mg/kg, iv measured upto 8 hrs by LC-MS/MS analysis; format: ADME, organism-based; settings: in vivo
[34] = Half life in beagle dog at 0.4 mg/kg, iv measured upto 24 hrs; format: ADME, organism-based, Canis lupus familiaris; settings: in vivo
[35] = Clearance in beagle dog at 0.4 mg/kg, iv measured upto 24 hrs; format: ADME, organism-based, Canis lupus familiaris; settings: in vivo

T1 sequence (P41595 whole entry): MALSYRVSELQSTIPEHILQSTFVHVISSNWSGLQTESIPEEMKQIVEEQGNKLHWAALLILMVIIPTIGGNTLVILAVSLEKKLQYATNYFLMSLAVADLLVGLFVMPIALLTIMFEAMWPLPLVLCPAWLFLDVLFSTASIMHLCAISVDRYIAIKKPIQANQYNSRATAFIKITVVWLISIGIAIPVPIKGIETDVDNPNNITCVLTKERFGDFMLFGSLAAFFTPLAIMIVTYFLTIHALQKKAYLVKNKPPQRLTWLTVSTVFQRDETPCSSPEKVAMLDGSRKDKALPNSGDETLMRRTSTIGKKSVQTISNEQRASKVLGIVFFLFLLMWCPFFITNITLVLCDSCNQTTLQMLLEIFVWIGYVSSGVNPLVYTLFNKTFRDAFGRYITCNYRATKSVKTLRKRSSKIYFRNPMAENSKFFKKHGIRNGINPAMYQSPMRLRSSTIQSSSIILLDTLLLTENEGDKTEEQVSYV
T3 sequence (P28222 whole entry): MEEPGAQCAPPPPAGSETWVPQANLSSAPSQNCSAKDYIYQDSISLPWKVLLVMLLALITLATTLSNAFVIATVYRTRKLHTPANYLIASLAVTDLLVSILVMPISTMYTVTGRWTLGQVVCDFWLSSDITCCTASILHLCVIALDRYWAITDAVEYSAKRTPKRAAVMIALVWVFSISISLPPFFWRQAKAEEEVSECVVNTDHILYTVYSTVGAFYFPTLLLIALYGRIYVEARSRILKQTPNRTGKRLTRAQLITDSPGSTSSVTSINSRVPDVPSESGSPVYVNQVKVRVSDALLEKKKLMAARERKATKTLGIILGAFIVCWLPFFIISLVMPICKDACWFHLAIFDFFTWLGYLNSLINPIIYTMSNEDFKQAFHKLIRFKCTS
Sequence of 5-hydroxytryptamine receptor 2A (P28223 whole entry): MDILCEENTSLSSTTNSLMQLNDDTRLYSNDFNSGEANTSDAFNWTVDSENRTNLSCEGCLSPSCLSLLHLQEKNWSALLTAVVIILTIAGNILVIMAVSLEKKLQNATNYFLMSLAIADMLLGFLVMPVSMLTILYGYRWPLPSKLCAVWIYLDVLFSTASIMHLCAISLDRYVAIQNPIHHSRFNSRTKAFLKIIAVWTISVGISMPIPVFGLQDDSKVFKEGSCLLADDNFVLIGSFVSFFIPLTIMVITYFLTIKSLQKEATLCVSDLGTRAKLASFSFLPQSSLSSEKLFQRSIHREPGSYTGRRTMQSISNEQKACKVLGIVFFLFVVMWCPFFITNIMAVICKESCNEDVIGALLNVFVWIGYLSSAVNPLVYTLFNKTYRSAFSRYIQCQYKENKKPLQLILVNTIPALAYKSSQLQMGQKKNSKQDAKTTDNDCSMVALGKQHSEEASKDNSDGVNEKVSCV
Sequence of 5-hydroxytryptamine receptor 7 (P34969 whole entry): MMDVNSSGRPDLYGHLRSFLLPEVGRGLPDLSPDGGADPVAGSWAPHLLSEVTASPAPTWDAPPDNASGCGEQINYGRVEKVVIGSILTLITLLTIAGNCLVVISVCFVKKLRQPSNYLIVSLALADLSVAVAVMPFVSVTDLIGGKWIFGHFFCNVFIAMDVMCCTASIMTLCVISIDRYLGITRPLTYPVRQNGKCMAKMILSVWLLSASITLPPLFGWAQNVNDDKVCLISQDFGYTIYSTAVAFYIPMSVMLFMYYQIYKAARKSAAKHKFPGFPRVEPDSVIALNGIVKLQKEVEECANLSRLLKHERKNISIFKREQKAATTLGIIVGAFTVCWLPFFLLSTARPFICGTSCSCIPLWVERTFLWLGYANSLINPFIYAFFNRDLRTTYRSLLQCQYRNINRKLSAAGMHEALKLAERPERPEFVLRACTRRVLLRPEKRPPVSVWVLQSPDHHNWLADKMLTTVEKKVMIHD

Compound: COc1cc([Se]C(F)(F)F)c(OC)cc1CCN.Cl
- Ki [1]: 14 nM
- Activity [2]: 25
- Ratio Ki [3]: 19
- Ki [4]: 4.1 nM
- inhibition [5]: 98%
- inhibition [6]: 83%
- Ki [7]: 949 nM
- Ki [8]: 4920 nM
- EC50 [9]: 7.3 nM
- Activity [10]: Dose-Dependent Effect
- Activity [11]: Active
- Activity [12]: Active
- Activity [13]: inactive
- Activity [14]: 820
- Activity [15]: Active
- Activity [16]: inactive
- Activity [17]: inactive
- Activity [18]: inactive
- Activity [19]: inactive
- Activity [20]: inactive
- half-life [21]: 0.633 h
- half-life at 10 µM [22]: 16 h
- Drug metabolism [23]: Metabolite_Detected
- Vd [24]: 22.2 L/kg
- AUC(0-inf) [25]: 49.7 ng·h/mL
- Kp at 48 h [26]: 57.9
- AUC(0-t) at 8 h [27]: 207 ng·h/mL
- Vd [28]: 5.67 L/kg
- MRT inf [29]: 1.19 h
- Tmax [30]: 0.25 h
- half-life [31]: 1.34 h
- AUC(0-t) at 8 h [32]: 49.9 ng·h/mL
- Activity [33]: > 98%
- half-life [34]: 4.31 h
- clearance [35]: 15.8 mL/min/kg
